In patent publication US20260209275A1, “PEPTIDE(S), COMPOSITION(S) AND METHOD(S) HAVING BROAD SPECTRUM ACTIVITY AGAINST CROP INSECTS” (TELLURIS BIOTECH INDIA PRIVATE LIMITED, priority 2022, published 2026):

Test system: Common fruit fly, Drosophila melanogaster
Test: Diet surface treatment bioassay against common fruit fly, population after one generation
Format: in vivo
Details: single peptide 0.1 mg/ml; after 14 days (one generation)
Procedure: A trap made up from a ripened banana was kept in an open, shady, and damp place to capture the flies. Captured flies were anaesthetized using about 5% Triethylamine (TAE) treatment for about 1 minute. Drosophila melanogaster files were identified, separated, and transferred to a flask containing diet made up of Corn flour: about […], Sugar: about 51 μm, Agar agar: about […], Yeast: about 17 μm, Methyl Paraben: about 4 μm, Propionic acid: about 4 ml, Distilled Water: about 1200 ml. Freshly emerged flies were transferred to separate bottle to synchronize the population. The population was maintained in a separate room at a temperature of about 25±2° C., RH of about 60-65% and was subjected to a 16:8 (light: dark) h photoperiod.
The insecticide stock solutions were prepared by dilution with phosphate buffered saline (PBS, pH 7.0) to achieve desire doses of test. Semi synthetic artificial diet surface treatment method was used to assess the efficacy of IPPs against […]. Diet was prepared as per the composition given above. 2 ml hot liquid diet poured in 25 ml glass vials (5 cm h and 1.5 cm diameter) and allowed to cool and solid. […] After 14 days precisely after one generation, insect stages, egg, larvae, pupa and adults were counted.

SMILES: CC[C@H](C)[C@H](NC(=O)[C@H](CCC(N)=O)NC(=O)[C@H](CCC(N)=O)NC(=O)[C@H](CCC(=O)O)NC(=O)[C@H](CCCCN)NC(=O)[C@H](CCC(N)=O)NC(=O)[C@H](CCC(=O)O)NC(=O)[C@H](C)NC(=O)[C@@H](N)CCSC)C(=O)N[C@@H](CC(C)C)C(=O)N[C@@H](CCCNC(=N)N)C(=O)N[C@@H](CC(C)C)C(=O)N[C@@H](CCCNC(=N)N)C(=O)N[C@@H](CCC(=O)O)C(=O)N[C@@H](CO)C(=O)N[C@@H](Cc1c[nH]cn1)C(=O)N[C@@H](Cc1c[nH]cn1)C(=O)N[C@@H](Cc1c[nH]cn1)C(=O)N[C@@H](Cc1c[nH]cn1)C(=O)N[C@@H](Cc1c[nH]cn1)C(=O)N[C@@H](Cc1c[nH]cn1)C(=O)O [Seq. ID No. 3, MAEQKEQQILRLRES]
- Observed Response (Percent reduction of population over UTC) SEQ ID No. X / SEQ ID No. Y: 37.79%
